Values quoted from earlier work as cited in patent US20250067661A1, “SYSTEM FOR BODY FLUID ISOMER ANALYSIS” (KONINKLIJKE PHILIPS N.V., priority 2021, published 2025).

Details: intravenous solution containing a racemic mixture

Row | maximum increase in plasma concentration | SMILES
1 | ≤ 13 fold | C[C@@H](O)C(=O)O [D-lactate]
2 | ≤ 2 fold | C[C@H](O)C(=O)O [L-lactate]
